One assay has as its system HCT116 MTAP null cells. Nature of the assay: HCT116 MTAP null cell line proliferation / cell viability (CellTiter-Glo, 6 days). Format: cell-based. The note with it: 144 h; HCT116 MTAP null cells, 6 days treatment, CellTiter-Glo cell viability; read-out: HCT-116 MTAP null IC50. An outline of the steps:
(§1)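 Anti-proliferative IC50s were derived from CellTiter-Glo signal in HCT116 parent and MTAP-null cells after six days on compound. Serial dilutions reached top concentrations of 1, 10 or 50 μM, with DMSO-only wells as control.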
In general terms: Cellular ATP, detected with luciferase, serves as a proxy for viable cell number.

A further assay concerns HCT116 WT cells. Nature of the assay: HCT116 WT (parent) cell line proliferation / cell viability (CellTiter-Glo, 6 days). Format: cell-based. The note with it: Homo sapiens, HCT-116, 144 h, 6 days treatment. The method, boiled down:
as §1

In general, IC50 refers to the concentration that inhibits the measured activity by half.

With `CN(C(=O)c1cc2c(cc1F)nc(N)c1cnn(C)c12)[C@H]1COCc2cc(C#N)ccc21` (single isomer, unassigned) [Example 596], the IC50 amounted to 185 nM in the assay on HCT116 MTAP null cells and 17100 nM in the assay on HCT116 WT cells.

As to `CN(C(=O)c1cc2c(cc1F)nc(N)c1cnn(C)c12)[C@@H]1COCc2c1ccc(F)c2F` (single isomer, unassigned) [Example 597], the IC50 in the assay on HCT116 MTAP null cells was 15 nM; with HCT116 WT cells it was 795 nM.

As for `CN(C(=O)c1cc2c(cc1F)nc(N)c1cnn(C)c12)[C@H]1COCc2c1ccc(F)c2F` (single isomer, unassigned) [Example 598], the half-inhibitory concentration (IC50) with HCT116 MTAP null cells stood at 416 nM; in the assay on HCT116 WT cells, 10100 nM.

As to `CN(C(=O)c1cc2c(cc1F)nc(N)c1cnn(C)c12)[C@@H]1COCc2cc(C(F)(F)F)cnc21` (single isomer, unassigned) [Example 599], the IC50 in the assay with HCT116 MTAP null cells is 64 nM; in the assay on HCT116 WT cells, 3820 nM.

As to `CN(C(=O)c1cc2c(cc1F)nc(N)c1cnn(C)c12)[C@@H]1COCc2cc(S(C)(=O)=O)ccc21` (single isomer, unassigned) [Example 600], the figures for the 50% inhibitory concentration (IC50) in the assay on HCT116 MTAP null cells and with HCT116 WT cells were 10 nM and 226 nM, respectively.

As to `C[C@H]1OC[C@@H](N(C)C(=O)c2ccc3nc(N)c4c(cnn4C)c3c2)c2ccc(C(F)(F)F)cc21` (single isomer, unassigned) [Example 601], the half-inhibitory concentration (IC50) is 21 nM in the assay with HCT116 MTAP null cells and 2100 nM in the assay on HCT116 WT cells.

On to `C[C@H]1OC[C@H](N(C)C(=O)c2ccc3nc(N)c4c(cnn4C)c3c2)c2ccc(C(F)(F)F)cc21` (single isomer, unassigned) [Example 602], for which the 50% inhibitory concentration (IC50) in the assay with HCT116 MTAP null cells stood at 4260 nM; in the assay with HCT116 WT cells it was 21300 nM.

As to `C[C@@H]1OC[C@@H](N(C)C(=O)c2ccc3nc(N)c4c(cnn4C)c3c2)c2ccc(C(F)(F)F)cc21` (single isomer, unassigned) [Example 603], the IC50 was 327 nM with HCT116 MTAP null cells and 16000 nM with HCT116 WT cells.

`C[C@@H]1OC[C@H](N(C)C(=O)c2ccc3nc(N)c4c(cnn4C)c3c2)c2ccc(C(F)(F)F)cc21` (single isomer, unassigned) [Example 604]: the IC50 with HCT116 MTAP null cells worked out at 2300 nM; in the assay with HCT116 WT cells it was 19100 nM.

As to `CN(C(=O)c1cc2c(cc1F)nc(N)c1c2cnn1C)[C@@H]1COCc2c1ccc(F)c2F` (single isomer, unassigned) [Example 605], the concentration for half-maximal inhibition (IC50) with HCT116 MTAP null cells came out at 285 nM; in the assay on HCT116 WT cells it was 26400 nM.

As to `CN(C(=O)c1cc2c(cc1F)nc(N)c1c2cnn1C)[C@@H]1COCc2cc(C(F)(F)F)cnc21` (single isomer, unassigned) [Example 606], the half-inhibitory concentration (IC50) in the assay on HCT116 MTAP null cells came out at 724 nM; with HCT116 WT cells it was 13500 nM.

For the compound `Cn1ncc2c3cc(C(=O)N(CC4CC4)[C@@H]4COCc5nc(C(F)(F)F)ccc54)c(F)cc3nc(N)c21` (single isomer, unassigned) [Example 607], the concentration for half-maximal inhibition (IC50) was found to be 21 nM in the assay with HCT116 MTAP null cells and 825 nM in the assay with HCT116 WT cells.

In the case of `CN(C(=O)c1ccc2nc(N)c3c(c2c1)COC3)[C@@H]1COCc2cc(Br)ccc21` (single isomer, unassigned) [Example 608], the half-inhibitory concentration (IC50) with HCT116 MTAP null cells was determined as 26 nM; in the assay with HCT116 WT cells, 1040 nM.

As to `CN(C(=O)c1ccc2nc(N)c3c(c2c1)COC3)[C@H]1COCc2cc(Br)ccc21` (single isomer, unassigned) [Example 609], the values for the half-maximal inhibitory concentration (IC50) with HCT116 MTAP null cells and in the assay with HCT116 WT cells were 598 nM and 7800 nM, respectively.

As to `CN(C(=O)c1ccc2nc(N)c3c(c2c1)COC3)[C@@H]1COc2cc(C3CC3)ccc21` (single isomer, unassigned) [Example 610], the half-inhibitory concentration (IC50) with HCT116 MTAP null cells was found to be 108 nM; in the assay with HCT116 WT cells, 5510 nM.

Turning to `CN(C(=O)c1ccc2nc(N)c3c(c2c1)COC3)[C@H]1COc2cc(C3CC3)ccc21` (single isomer, unassigned) [Example 611], the IC50 in the assay with HCT116 MTAP null cells is 1690 nM; with HCT116 WT cells, 10500 nM.

With `CN(C(=O)c1ccc2nc(N)c3c(c2c1)COC3)[C@@H]1COc2cc(C3=CCOCC3)ccc21` (single isomer, unassigned) [Example 612], the IC50 was determined as 33 nM in the assay with HCT116 MTAP null cells and 2640 nM with HCT116 WT cells.

Turning to `CN(C(=O)c1ccc2nc(N)c3c(c2c1)COC3)[C@H]1COc2cc(C3=CCOCC3)ccc21` (single isomer, unassigned) [Example 613], the half-inhibitory concentration (IC50) with HCT116 MTAP null cells came to 860 nM; with HCT116 WT cells, 2630 nM.

As to `CN(C(=O)c1ccc2nc(N)c3cnn(C)c3c2c1)[C@@H]1CCc2cc(-c3cnn(C)c3)ccc21` (single isomer, unassigned) [Example 623], the IC50 is 64 nM in the assay on HCT116 MTAP null cells and 3490 nM in the assay on HCT116 WT cells.

As to `CN(C(=O)c1ccc2nc(N)c3cnn(C)c3c2c1)[C@H]1CCc2nc(-c3cnn(C)c3)ccc21` (single isomer, unassigned) [Example 624], the IC50 in the assay with HCT116 MTAP null cells turned out to be 75 nM; in the assay with HCT116 WT cells, 6510 nM.

As for `CN(C(=O)c1ccc2nc(N)c3cnn(C)c3c2c1)[C@@H]1COCc2cc(-c3cnn(C(F)(F)F)c3)ccc21` (single isomer, unassigned) [Example 663], the IC50 in the assay on HCT116 MTAP null cells stood at 10 nM; in the assay with HCT116 WT cells, 922 nM.

On to `CN(C(=O)c1ccc2nc(N)c3cnn(C)c3c2c1)[C@H]1COCc2cc(-c3cnn(C(F)(F)F)c3)ccc21` (single isomer, unassigned) [Example 664], for which the results for the IC50 in the assay with HCT116 MTAP null cells and in the assay on HCT116 WT cells were 319 nM and 1770 nM, respectively.

`CN(C(=O)c1cc2c3c(c(N)nc2cc1F)COC3)[C@H]1COCc2cc(-c3ccc(C(F)(F)F)cc3)ccc21` (single isomer, unassigned) [Example 665]: the IC50 amounted to 875 nM in the assay on HCT116 MTAP null cells and 2510 nM in the assay with HCT116 WT cells.

On to `CN(C(=O)c1cc2c3c(c(N)nc2cc1F)COC3)[C@@H]1COCc2cc(-c3ccc(C(F)(F)F)cc3)ccc21` (single isomer, unassigned) [Example 666], for which the concentration for half-maximal inhibition (IC50) in the assay on HCT116 MTAP null cells is 22 nM; with HCT116 WT cells it was 1100 nM.

In the case of `CN(C(=O)c1ccc2nc(N)c3cnn(C)c3c2c1)[C@@H]1COCc2cc(-c3ccc(C(F)(F)F)cc3)ccc21` (single isomer, unassigned) [Example 669], the IC50 in the assay with HCT116 MTAP null cells was 16 nM; in the assay on HCT116 WT cells, 1000 nM.

With `CN(C(=O)c1ccc2nc(N)c3cnn(C)c3c2c1)[C@H]1COCc2cc(-c3ccc(C(F)(F)F)cc3)ccc21` (single isomer, unassigned) [Example 670], the IC50 with HCT116 MTAP null cells was 536 nM; with HCT116 WT cells it was 1120 nM.

For the compound `Cc1ccc2c(c1)CC[C@H]2N(C)C(=O)c1ccc2nc(N)c3cnn(C)c3c2c1` (single isomer, unassigned) [Example 680], the IC50 is 168 nM in the assay with HCT116 MTAP null cells and 7960 nM with HCT116 WT cells.

`CCN(C(=O)c1cc2c(cn1)nc(N)c1cnn(C)c12)C1COc2cc(C(F)(F)F)ccc21` (stereo in doubt) [Example 238, 4-amino-N-ethyl-1-methyl-N-((3S)-6-(trifluoromethyl)-2,3-dihydro-1-benzofuran-3-yl)-1H-pyrazolo[4,3-c][1,7]naph-thyridine-8-carboxamide]: the IC50 is 215 nM in the assay with HCT116 MTAP null cells and 13000 nM with HCT116 WT cells.

With `Cn1ncc2c(N)nc3cc(F)c(C(=O)N(C4CC4)[C@@H]4COc5cc(C(F)(F)F)ccc54)cc3c21` [Example 200, (S)-4-amino-N-cyclopropyl-7-fluoro-1-methyl-N-(6-(trifluoromethyl)-2,3-dihydrobenzofuran-3-yl)-1H-pyrazolo[4,3-c]quinoline-8-carboxamide], the IC50 worked out at 8 nM in the assay with HCT116 MTAP null cells and 112 nM with HCT116 WT cells.

`CN(C(=O)c1ccc2nc(N)c3c(c2c1)COC3)[C@@H]1COc2cc(-c3cnn(C)c3)ccc21` [Example 202, 4-amino-N-methyl-N-((3S)-6-(1-methyl-1H-pyrazol-4-yl)-2,3-dihydro-1-benzofuran-3-yl)-1,3-dihydrofuro[3,4-c]-quinoline-8-carboxamide]: the half-maximal inhibitory concentration (IC50) in the assay with HCT116 MTAP null cells was determined as 83 nM; in the assay with HCT116 WT cells, 11400 nM.

With `C[C@H]1OCc2c1c(N)nc1ccc(C(=O)N(C)[C@@H]3COc4cc(-c5cnn(C)c5)ccc43)cc21` [Example 204, (3R)-4-amino-N,3-dimethyl-N-((3S)-6-(1-methyl-1H-pyrazol-4-yl)-2,3-dihydro-1-benzofuran-3-yl)-1,3-dihydrofuro[3,4-c]-quinoline-8-carboxamide], the IC50 with HCT116 MTAP null cells amounted to 31 nM; in the assay on HCT116 WT cells, 4390 nM.

Consider `CN(C(=O)c1cc2c3c(c(N)nc2cn1)COC3)[C@@H]1COc2cc(OC(F)(F)F)ccc21` [Example 206, 4-amino-N-methyl-N-((3S)-6-(trifluoromethoxy)-2,3-dihydro-1-benzofuran-3-yl)-1,3-dihydrofuro[3,4-c][1,7]-naphthyridine-8-carboxamide], for which the IC50 in the assay on HCT116 MTAP null cells amounted to 100 nM; in the assay with HCT116 WT cells it was 9790 nM.

Turning to `CN(C(=O)c1cc2c3c(c(N)nc2cn1)COC3)[C@H]1COc2cc(OC(F)(F)F)ccc21` [Example 207, 4-amino-N-methyl-N-((3R)-6-(trifluoromethoxy)-2,3-dihydro-1-benzofuran-3-yl)-1,3-dihydrofuro[3,4-c][1,7]-naphthyridine-8-carboxamide], the values for the concentration for half-maximal inhibition (IC50) in the assay on HCT116 MTAP null cells and with HCT116 WT cells were 6060 nM and 23200 nM, respectively.

As for `CN(C(=O)c1cc2c3c(c(N)nc2cn1)COC3)[C@@H]1COc2cc(Cl)c(Cl)cc21` [Example 209, 4-amino-N-((3S)-5,6-dichloro-2,3-dihydro-1-benzofuran-3-yl)-N-methyl-1,3-dihydrofuro[3,4-c][1,7]naphthyridine-8-carbox-amide], the IC50 with HCT116 MTAP null cells stood at 61 nM; in the assay on HCT116 WT cells, 3000 nM.

Take `CN(C(=O)c1cc2c3c(c(N)nc2cn1)COC3)[C@H]1COc2cc(Cl)c(Cl)cc21` [Example 210, 4-amino-N-((3R)-5,6-dichloro-2,3-dihydro-1-benzofuran-3-yl)-N-methyl-1,3-dihydrofuro[3,4-c][1,7]naphthyridine-8-carbox-amide]: the IC50 is 2370 nM in the assay on HCT116 MTAP null cells and 25300 nM in the assay with HCT116 WT cells.
